According to article PMC12347358, “Structural Insights and Calcium-Switching Mechanism of Fasciola hepatica Calcium-Binding Protein FhCaBP4” (International Journal of Molecular Sciences, 2025):

Experiments:
[1] = target: T1, FhCaBP4 (Fasciola hepatica calcium-binding protein 4) (Fasciola hepatica, UniProt I6U578); assay: microscale thermophoresis (MST), labelled purified protein
T1 construct: full-length (residues 1–191), C-terminal 6×His-tag (LEHHHHHH)

[2] = target: Fasciola hepatica calcium-binding protein 4 (FhCaBP4), full-length (residues 1–191) (Fasciola hepatica); assay: crystal structure; apo form at 1.93 Å, space group P212121, two molecules per asymmetric unit; crystals grown at 20 °C by vapor diffusion with 2 M ammonium sulfate, 0.1 M sodium citrate/citric acid pH 5.5

CN(C)CCCN1c2ccccc2Sc2ccc(Cl)cc21 [CPZ]
Kd [1]: 289 ± 99.6 µM

CN1CCN(CCCN2c3ccccc3Sc3ccc(C(F)(F)F)cc32)CC1 [TFP]
Kd [1]: 699 ± 341 µM

NCCCCCCNS(=O)(=O)c1cccc2c(Cl)cccc12 [W7]
Kd [1]: 471 ± 157 µM

Fasciola hepatica calcium-binding protein 4 (FhCaBP4), full-length (residues 1–191) (natural protein)
stoichiometry N [2]: 2
